In BindingDB's records for doi:10.1021/jm901710h (Nerviano Medical Sciences, 2010):

Target: 3-phosphoinositide-dependent protein kinase 1, PDPK1 (Homo sapiens) (UniProt O15530)
Assay: Inhibition of PDK1

Chain of 3-phosphoinositide-dependent protein kinase 1, PDPK1 (Homo sapiens) (O15530 whole entry, looked up): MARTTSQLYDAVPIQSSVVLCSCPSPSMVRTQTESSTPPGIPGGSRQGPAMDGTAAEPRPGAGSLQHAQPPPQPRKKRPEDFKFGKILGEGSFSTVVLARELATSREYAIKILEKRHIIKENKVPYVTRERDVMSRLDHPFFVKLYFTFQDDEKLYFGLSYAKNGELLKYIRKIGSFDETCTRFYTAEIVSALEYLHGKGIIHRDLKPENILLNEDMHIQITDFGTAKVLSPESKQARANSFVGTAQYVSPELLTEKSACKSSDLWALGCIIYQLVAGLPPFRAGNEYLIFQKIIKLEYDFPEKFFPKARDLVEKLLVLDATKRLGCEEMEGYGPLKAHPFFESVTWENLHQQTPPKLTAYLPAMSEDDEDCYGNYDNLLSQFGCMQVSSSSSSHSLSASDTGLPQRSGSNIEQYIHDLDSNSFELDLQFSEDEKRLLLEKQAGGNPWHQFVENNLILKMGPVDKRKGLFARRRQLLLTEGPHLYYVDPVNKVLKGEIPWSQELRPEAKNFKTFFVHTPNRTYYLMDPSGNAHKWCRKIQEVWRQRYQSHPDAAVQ

IC50 | Structure (SMILES)
> 10 µM | Cn1nc(C(N)=O)c2c1-c1nc(NC3CCN(C(=O)c4ccccc4)CC3)ncc1CC2 [1-Methyl-8-{[1-(phenylcarbonyl)piperidin-4-yl]amino}-4,5-dihydro-1H-pyrazolo[4,3-h]quinazoline-3-carboxamide]
> 10 µM | CC(=O)N1CCC(Nc2ncc3c(n2)-c2c(c(C(N)=O)nn2C)CC3)CC1 [8-[(1-Acetylpiperidin-4-yl)amino]-1-methyl-4,5-dihydro-1H-pyrazolo[4,3-h]quinazoline-3-carboxamide]
